Biological target: PAS domain-containing serine/threonine-protein kinase (Homo sapiens, UniProt Q96RG2)
Assay: Inhibition of human recombinant PASK using Ulight-peptide substrate incubated for 2 hrs by TR-FRET assay

PAS domain-containing serine/threonine-protein kinase, sequence (Q96RG2 whole entry, the tested form may be a part): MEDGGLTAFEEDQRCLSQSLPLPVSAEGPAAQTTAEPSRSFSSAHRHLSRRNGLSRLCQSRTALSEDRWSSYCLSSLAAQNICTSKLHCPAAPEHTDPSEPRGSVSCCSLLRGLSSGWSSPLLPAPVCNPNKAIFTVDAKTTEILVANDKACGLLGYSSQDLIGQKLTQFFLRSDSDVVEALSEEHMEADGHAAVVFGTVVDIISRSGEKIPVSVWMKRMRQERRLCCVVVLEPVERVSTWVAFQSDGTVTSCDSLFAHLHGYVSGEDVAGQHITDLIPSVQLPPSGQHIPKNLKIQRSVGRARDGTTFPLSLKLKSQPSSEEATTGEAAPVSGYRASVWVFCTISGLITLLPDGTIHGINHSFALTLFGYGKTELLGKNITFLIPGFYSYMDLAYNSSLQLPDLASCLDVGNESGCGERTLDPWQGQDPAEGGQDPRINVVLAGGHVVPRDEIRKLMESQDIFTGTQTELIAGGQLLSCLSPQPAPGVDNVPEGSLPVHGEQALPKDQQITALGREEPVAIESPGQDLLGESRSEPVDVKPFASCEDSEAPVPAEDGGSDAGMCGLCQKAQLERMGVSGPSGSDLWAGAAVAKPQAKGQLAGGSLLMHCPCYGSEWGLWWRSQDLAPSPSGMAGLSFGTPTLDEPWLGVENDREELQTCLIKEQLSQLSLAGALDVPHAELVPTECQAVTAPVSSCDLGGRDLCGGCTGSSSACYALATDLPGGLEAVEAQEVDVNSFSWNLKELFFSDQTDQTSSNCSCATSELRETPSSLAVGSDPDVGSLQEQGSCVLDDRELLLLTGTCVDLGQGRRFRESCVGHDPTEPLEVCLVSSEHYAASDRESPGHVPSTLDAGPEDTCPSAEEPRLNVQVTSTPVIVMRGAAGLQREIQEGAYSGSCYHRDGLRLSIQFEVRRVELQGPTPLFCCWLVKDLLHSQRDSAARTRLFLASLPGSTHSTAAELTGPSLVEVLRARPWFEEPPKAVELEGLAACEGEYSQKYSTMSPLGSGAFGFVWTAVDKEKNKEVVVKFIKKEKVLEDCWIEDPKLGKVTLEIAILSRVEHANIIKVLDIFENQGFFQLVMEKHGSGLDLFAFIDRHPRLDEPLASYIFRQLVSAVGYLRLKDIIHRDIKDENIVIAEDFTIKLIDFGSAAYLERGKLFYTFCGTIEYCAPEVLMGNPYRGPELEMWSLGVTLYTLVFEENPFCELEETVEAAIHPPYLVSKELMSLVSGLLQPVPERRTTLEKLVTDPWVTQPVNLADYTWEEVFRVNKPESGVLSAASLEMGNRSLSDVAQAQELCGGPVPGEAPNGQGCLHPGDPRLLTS

Compound	IC50 [µM]
COc1cc(-c2cc(=O)n3nc(-c4ccc(F)cc4)nc3[nH]2)ccc1Cl	≤ 10
O=c1cc(-c2ccc3[nH]nnc3c2)[nH]c2nc(-c3ccc(Cl)c(Cl)c3)nn12	≤ 10
